In a melting point compilation (Tetko et al.; mined from patent text by program, amines drawn as free bases though some values may be those of a salt):

Compound | melting point
Cc1nsc(OCC(Cl)(Cl)Cl)c1N | 58 to 60 °C
O=c1[nH]c(CO)nc2nc(O)cnc12 | > 300 °C
O=c1c(Br)c(OCc2ccccc2)ccn1CCc1cccs1 | 128 to 130 °C
COc1ccccc1C(Cn1ccnc1)S(=O)c1ccc(C(=O)O)cc1 (stereo not given) | 157 to 159 °C
Oc1c(Br)cc(-c2c3ccccc3c(C(F)(F)F)c3sc4ccccc4c23)cc1Br | 223 to 225 °C
O=C(O)CCCCNC(=O)C(CS)Cc1ccccc1 (stereo not given) | 78 to 79 °C
O=C(Nc1ccc(-n2nc(C(F)(F)F)nc2Cl)cc1)c1ccncc1F | 167 to 170 °C
CCCN(CCC)C(=O)c1cc(C(=O)N[C@@H](Cc2cc(F)cc(F)c2)[C@H](O)CNCc2cccc(CC)c2)cc(-c2ncco2)c1 | 65 to 67 °C
COc1ccccc1S(=O)(=O)OCC(=O)c1ccccc1 | 88 °C
CC(C)(C)OC(=O)Nc1cc(CC#N)c(C#Cc2ccccc2)cc1N | 143 °C
Cc1ccc(OCCOS(N)(=O)=O)cc1 | 108 to 110 °C
O=C(O)c1ccc(-c2ccc3ncnc(Nc4ccc(OCc5cccc(F)c5)c(Cl)c4)c3c2)s1 | 312 to 314 °C
CS(=O)(=O)Nc1ccc(C(CC2CCCC2)C(=O)Nc2nccs2)cc1 (stereo not given) | 85 to 90 °C
C[C@@H](Nc1ncnc2[nH]c(-c3ccc(C(=O)O)cc3)cc12)c1ccccc1 | > 350 °C
CCNC(=O)NCCC1CCc2ccc3nc(C)oc3c21 (stereo not given) | 136 to 138 °C
CCCC(=O)Nc1ccc2oc3c(c2c1)CCCC3 | 133 to 135 °C
O=C(O)CN1C(=O)c2cccc3c(C(=O)c4ccccc4)ccc(c23)C1=O | 310 to 312 °C
NC(=O)CCn1c(=S)sc2ccc(Cl)cc21 | 215 to 217 °C
CC(=O)n1cc(Cl)c(-c2cccc(C(F)(F)F)c2)c1 | 70 to 71.5 °C
O=C1CCCC(=O)N1c1ccncc1 | 153 to 155 °C
COC(=O)c1cc(CCC2CNc3nc(NC(=O)C(C)(C)C)nc(O)c3C2)cn1[Si](C(C)C)(C(C)C)C(C)C (stereo not given) | 202 to 204 °C
CCOC(=O)C1CN(CC)c2nc3cc(F)c(F)cc3cc2C1=O (stereo not given) | 152 °C
CCCc1nc2nc3cc(Cl)ccc3nc2[nH]1 | 280 to 282 °C
Cc1ccc2c(c1)CC1(CCC(=O)CC1)C2 | 68 to 70 °C
Cc1cccc(-c2[nH]c(C(C)C)nc2-c2cccc(-c3cccnc3)c2)n1 | 74 to 77 °C

Compound | melting point
CCC1CCCCc2c1oc(=O)c(C(c1ccccc1)C1CC1)c2O (stereo not given) | 63 to 71 °C
COc1cc2ccc3c(OC)cccc3c2c(OC)c1OC | 80 to 82 °C
Cc1nc2c3c(ccc2n1C)[C@@H](OCC(F)F)[C@H](O)[C@@H](c1ccccc1)O3 | 249 °C
O=C1NCc2c1c1c3cc(O)ccc3[nH]c1c1[nH]c3ccc(O)cc3c21 | > 330 °C
O=C(NCc1ccc(F)cc1)c1nc2n(c(=O)c1OCc1ccccc1)CCN2c1ccccc1 | 199 to 200 °C
CC(C)(C)c1cc(C(=O)c2ccc([N+](=O)[O-])cc2)cc(C(C)(C)C)c1O | 178 to 180 °C
COc1cc(OC)c(-c2cccs2)cc1/C=C/C(=O)c1ccc(C(=O)O)cc1 | 213 to 216 °C
CCOC(=O)C(Cc1ccc(OC)c(OC)c1)NC(=O)c1ccc(OC(C)C)cc1 (stereo not given) | 126 to 128 °C
CC(C)(C)c1ccc(SC(CCl)S(=O)(=O)c2ccc(Cl)cc2)cc1 (stereo not given) | 52 to 68 °C
CCC/C=C/C(=O)NC(=O)OC(C)(C)C | 71 to 72 °C
COc1cc(Nc2nc3cccc(-c4ccc(S(N)(=O)=O)cc4)c3o2)cc(OC)c1OC | 247 to 252 °C
N#Cc1ccc(NC(=O)Nc2cccc(C#N)c2)cc1 | 183 to 185 °C
Cc1nn(C)c(C(=O)N(C)C)c1Nc1ccccc1[N+](=O)[O-] | 144 to 146 °C
Cc1cn(CCC(=O)O)c(=O)[nH]c1=O | 118 to 121 °C
CN1CCCCC1CCc1ccccc1NC(=O)c1ccc(C(C)(C)C)cc1 (stereo not given) | 101 to 120 °C
Nc1sc2c(c1C(=O)c1ccc(Cl)c3ccccc13)CCCC2 | 179 to 181 °C
CC(C)(C)OC(=O)NCCCCn1c(=O)c2cccc3ncc(c1=O)n32 | 118 to 119 °C
C=CCSc1nsc(S)n1 | 107 to 108 °C
CCn1c(=O)[nH]c2c(C)nn(CC)c2c1=O | 208 to 209 °C
CCOCC1(C)CCCSc2cc(C#Cc3ccc(C(=O)O)cc3)ccc21 (stereo not given) | 154 to 155 °C
Sc1ncc(CCCCc2ccccc2)[nH]1 | 168 to 169 °C
N#Cc1ccc(NC(=O)[C@H]2NCC[C@@H]2O)c2ccccc12 | 174 to 176 °C
CCOC(=O)C1=C(C)Nc2nc(N3CCOCC3)nc(N3CCOCC3)c2C1c1ccccc1[N+](=O)[O-] (stereo not given) | 201 °C
CC1CCc2c(ccc(F)c2-n2ccnc2)N1 (stereo not given) | 162 to 164 °C
CN1CCN(c2nc3sc4c(NCCCn5ccnc5)ncnc4c3c3c2COC(C)(C)C3)CC1 | 227 °C
